# Reference: ChEMBL document CHEMBL3826968, “Glycine Transporter 1 Inhibitors and the Promise of a New Schizophrenia Therapy” (ACS Med Chem Lett, 2016)
# pKi: −log10 of the molar value.
# Target: T1, Sodium- and chloride-dependent glycine transporter 1 (Homo sapiens, UniProt P48067)
# T1 sequence (P48067 whole entry): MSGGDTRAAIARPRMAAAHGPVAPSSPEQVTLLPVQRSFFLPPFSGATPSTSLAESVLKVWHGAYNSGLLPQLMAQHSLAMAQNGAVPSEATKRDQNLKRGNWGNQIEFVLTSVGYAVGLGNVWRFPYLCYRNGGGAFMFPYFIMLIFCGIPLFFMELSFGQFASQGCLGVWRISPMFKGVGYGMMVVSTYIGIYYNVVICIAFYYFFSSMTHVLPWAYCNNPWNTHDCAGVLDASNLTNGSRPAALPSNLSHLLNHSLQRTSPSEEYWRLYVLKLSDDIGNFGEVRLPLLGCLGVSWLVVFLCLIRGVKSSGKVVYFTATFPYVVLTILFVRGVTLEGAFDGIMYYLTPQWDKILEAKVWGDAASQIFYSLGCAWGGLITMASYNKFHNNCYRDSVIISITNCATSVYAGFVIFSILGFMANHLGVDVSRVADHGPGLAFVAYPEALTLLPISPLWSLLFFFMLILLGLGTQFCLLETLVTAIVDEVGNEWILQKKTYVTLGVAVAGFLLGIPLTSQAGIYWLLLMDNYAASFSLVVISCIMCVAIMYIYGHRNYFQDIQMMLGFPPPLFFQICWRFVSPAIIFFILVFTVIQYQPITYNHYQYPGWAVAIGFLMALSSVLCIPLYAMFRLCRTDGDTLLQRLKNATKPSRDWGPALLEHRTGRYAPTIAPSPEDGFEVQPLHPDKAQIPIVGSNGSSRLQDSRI
# Experiment: Displacement of [3H](R)-NPTS or [3H]N-methyl-SSR504734 from recombinant human glycine transporter type-1 isoform C expressed in CHO cell membrane incubated for 1 hr by liquid scintillation spectrometry
# Format: cell membranes
row,Structure (SMILES),pKi
1,Cn1cc(S(=O)(=O)N2CC(c3ccc(F)cc3)C(c3cccc(C(F)(F)F)c3)=N2)nn1 (stereo not drawn),≥ 5.00
2,Cn1cnc(S(=O)(=O)N2CC(c3ccc(Cl)cc3)C(c3ccccc3)=N2)c1 (stereo not drawn),≥ 6.00
3,Cn1cc(S(=O)(=O)N2CC(c3ccccc3)C(c3ccccn3)=N2)cn1 (stereo not drawn),≤ 5.00
